Measured values reported in ChEMBL document CHEMBL1201862, “PubChem BioAssay data set” (2004).
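Dose response: 5 concentrations. Exposure: 48 h. Format: 96-well plates. Endpoint: linear interpolation; highest concentration if not reached. Abbreviation: GI50, concentration required for 50% inhibition of growth.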 The source made the active and inactive calls. No stated cut-off is given here; in the data, active = GI50 up to about 1.1 µM and inactive = higher.

What was measured:
Assay in all cases: NCI-60 cell line screen, 48 h
COLO 205 = test system: COLO 205
EKVX = test system: EKVX
HCC 2998 = test system: HCC 2998
HT-29 = test system: HT-29
Hs-578T = test system: Hs-578T
K562 = test system: K562
M14 = test system: M14
MCF7 = test system: MCF7
MDA-MB-231 = test system: MDA-MB-231
MDA-N = test system: MDA-N
NCI/ADR-RES = test system: NCI/ADR-RES
OVCAR-3 = test system: OVCAR-3
OVCAR-5 = test system: OVCAR-5
OVCAR-8 = test system: OVCAR-8
RPMI-8226 = test system: RPMI-8226
RXF 393 = test system: RXF 393
SNB-75 = test system: SNB-75
SR = test system: SR
TK-10 = test system: TK-10

Compound | GI50 (COLO 205) | GI50 (EKVX) | GI50 (HCC 2998) | GI50 (HT-29) | GI50 (Hs-578T) | GI50 (K562) | GI50 (M14) | GI50 (MCF7) | GI50 (MDA-MB-231) | GI50 (MDA-N) | GI50 (NCI/ADR-RES) | GI50 (OVCAR-3) | GI50 (OVCAR-5) | GI50 (OVCAR-8) | GI50 (RPMI-8226) | GI50 (RXF 393) | GI50 (SNB-75) | GI50 (SR) | GI50 (TK-10)
CCOC(=O)[C@@H]1ON2O[C@H](OC3CCCC3(c3ccccc3)c3ccccc3)C[C@H]3OC(=O)[C@@H]1C32 (stereo partly drawn) | 40.6 µM (inactive) | > 100 µM (inactive) | 52.1 µM (inactive) | 23.3 µM (inactive) | 49.4 µM (inactive) | 41.2 µM (inactive) | 45.3 µM (inactive) | 34.4 µM (inactive) | 36.6 µM (inactive) | 43.3 µM (inactive) | 31.8 µM (inactive) | 40.9 µM (inactive) | > 100 µM (inactive) | 35.3 µM (inactive) | 35.6 µM (inactive) | 11.1 µM (inactive) | 71.4 µM (inactive) | 33.7 µM (inactive) | 81.3 µM (inactive)
O=C([C@H](O)[C@@H](O)c1ccc(Br)cc1)C12CC3CC(CC(C3)C1)C2 | > 20.2 µM (inactive) | 32.4 µM (inactive) | > 21.3 µM (inactive) | 12.7 µM (inactive) | > 39.1 µM (inactive) | 31.5 µM (inactive) | 13.6 µM (inactive) | 7.31 µM (inactive) | 10.5 µM (inactive) | 11.1 µM (inactive) | 24.9 µM (inactive) | 9.25 µM (inactive) | 39.4 µM (inactive) | 42.8 µM (inactive) | 14.3 µM (inactive) | 52.7 µM (inactive) | 2.93 µM (inactive) | 34.8 µM (inactive) | 14 µM (inactive)
Clc1ccc(Cl)c(/N=N/c2cc3c4c(c2)CCCN4CCC3)c1 | > 10 µM (inactive) | > 10 µM (inactive) | > 10 µM (inactive) | > 10 µM (inactive) | > 10 µM (inactive) | > 10 µM (inactive) | > 10 µM (inactive) | > 10 µM (inactive) | > 10 µM (inactive) | > 10 µM (inactive) | > 10 µM (inactive) | > 10 µM (inactive) | – | > 10 µM (inactive) | > 10 µM (inactive) | > 10 µM (inactive) | > 10 µM (inactive) | > 10 µM (inactive) | > 10 µM (inactive)
C[N+](C)([O-])CCCNc1c2ccccc2nc2cccc([N+](=O)[O-])c12 | 0.143 µM (active) | 0.28 µM (active) | 0.164 µM (active) | 0.179 µM (active) | 0.938 µM (active) | 0.253 µM (active) | 0.258 µM (active) | 0.113 µM (active) | 0.33 µM (active) | 0.173 µM (active) | 8.2 µM (inactive) | 0.308 µM (active) | 0.355 µM (active) | 0.635 µM (active) | 0.313 µM (active) | 0.163 µM (active) | 0.456 µM (active) | 0.0653 µM (active) | 0.982 µM (active)
Sc1nn2c(COc3cccc(OCc4nnc5sc(S)nn45)c3)nnc2s1 | > 100 µM (inactive) | > 100 µM (inactive) | > 100 µM (inactive) | 62.5 µM (inactive) | > 100 µM (inactive) | 7.89 µM (inactive) | > 100 µM (inactive) | 76.2 µM (inactive) | > 100 µM (inactive) | > 100 µM (inactive) | > 100 µM (inactive) | > 100 µM (inactive) | > 100 µM (inactive) | > 100 µM (inactive) | 73.5 µM (inactive) | > 100 µM (inactive) | > 100 µM (inactive) | 17.4 µM (inactive) | > 100 µM (inactive)
CN(C)c1ccc(/C=C(\NC(=O)c2ccccc2)C2=NC(CCC(=O)O)C(=O)O2)cc1 (stereo not drawn) | > 50 µM (inactive) | > 50 µM (inactive) | > 50 µM (inactive) | > 50 µM (inactive) | > 50 µM (inactive) | > 50 µM (inactive) | > 50 µM (inactive) | > 50 µM (inactive) | > 50 µM (inactive) | > 50 µM (inactive) | 49 µM (inactive) | > 50 µM (inactive) | > 50 µM (inactive) | > 41.4 µM (inactive) | 35.9 µM (inactive) | > 50 µM (inactive) | > 50 µM (inactive) | 49.2 µM (inactive) | > 50 µM (inactive)
O=C(/C=C/c1ccc(O)c(O)c1)OCc1ccccc1 [BENZYL CAFFEATE] | 22.4 µM (inactive) | 29.7 µM (inactive) | 36.6 µM (inactive) | 32.3 µM (inactive) | 9.71 µM (inactive) | 9.84 µM (inactive) | 11.1 µM (inactive) | 7.8 µM (inactive) | 21.6 µM (inactive) | 4.4 µM (inactive) | 15.8 µM (inactive) | 11 µM (inactive) | 29.5 µM (inactive) | – | 10.6 µM (inactive) | 16.8 µM (inactive) | – | 3.74 µM (inactive) | 15.4 µM (inactive)
CC1C(=NO)C(C)C(c2ccccc2)N(N=O)C1c1ccccc1 (stereo not drawn) | 17.3 µM (inactive) | 22.9 µM (inactive) | 18.4 µM (inactive) | 17.4 µM (inactive) | 16.4 µM (inactive) | 32.7 µM (inactive) | 16 µM (inactive) | 37.9 µM (inactive) | 16.1 µM (inactive) | 20.1 µM (inactive) | 17.5 µM (inactive) | 25.2 µM (inactive) | – | 18 µM (inactive) | – | 17.1 µM (inactive) | 25.1 µM (inactive) | 15.5 µM (inactive) | 24.1 µM (inactive)
CS(=N)(=O)CCC(N)P(=O)(O)O (stereo not drawn) | > 100 µM (inactive) | > 100 µM (inactive) | > 100 µM (inactive) | > 100 µM (inactive) | > 100 µM (inactive) | > 100 µM (inactive) | > 100 µM (inactive) | > 100 µM (inactive) | > 100 µM (inactive) | > 100 µM (inactive) | > 100 µM (inactive) | > 100 µM (inactive) | > 100 µM (inactive) | > 100 µM (inactive) | > 100 µM (inactive) | > 100 µM (inactive) | – | > 100 µM (inactive) | > 100 µM (inactive)
COc1ccc(CNNC(=O)c2cc[n+]([BH2-]C#N)cc2)cc1OC | > 100 µM (inactive) | > 100 µM (inactive) | > 100 µM (inactive) | – | > 100 µM (inactive) | > 100 µM (inactive) | > 100 µM (inactive) | > 100 µM (inactive) | > 100 µM (inactive) | > 100 µM (inactive) | > 100 µM (inactive) | > 100 µM (inactive) | > 100 µM (inactive) | > 100 µM (inactive) | > 100 µM (inactive) | > 100 µM (inactive) | > 100 µM (inactive) | > 100 µM (inactive) | > 100 µM (inactive)
O=C(O)CCc1ccc2c(c1)CC1(Cc3ccccc3C1)C2 | 78 µM (inactive) | > 100 µM (inactive) | > 100 µM (inactive) | > 100 µM (inactive) | > 100 µM (inactive) | – | > 100 µM (inactive) | > 100 µM (inactive) | > 100 µM (inactive) | > 100 µM (inactive) | > 100 µM (inactive) | > 100 µM (inactive) | > 100 µM (inactive) | > 100 µM (inactive) | > 100 µM (inactive) | > 100 µM (inactive) | < 0.01 µM (active) | 37.9 µM (inactive) | > 100 µM (inactive)
c1ccc([I+]c2ccccc2)cc1 | > 100 µM (inactive) | > 100 µM (inactive) | > 100 µM (inactive) | > 100 µM (inactive) | > 100 µM (inactive) | > 100 µM (inactive) | > 100 µM (inactive) | > 100 µM (inactive) | > 100 µM (inactive) | > 100 µM (inactive) | > 100 µM (inactive) | > 100 µM (inactive) | > 100 µM (inactive) | > 100 µM (inactive) | > 100 µM (inactive) | > 100 µM (inactive) | – | > 100 µM (inactive) | > 100 µM (inactive)
CCOc1cc(C2CC(c3ccc(NS(=O)(=O)c4cc([N+](=O)[O-])ccc4C)cc3)=NN2C(=O)c2ccccc2)ccc1O (stereo not drawn) | 16.4 µM (inactive) | 18.7 µM (inactive) | – | 26.5 µM (inactive) | 16.8 µM (inactive) | 18.2 µM (inactive) | 18.7 µM (inactive) | 17.3 µM (inactive) | 17.5 µM (inactive) | 21.8 µM (inactive) | 23.3 µM (inactive) | 12 µM (inactive) | 36.6 µM (inactive) | 15.2 µM (inactive) | 31.5 µM (inactive) | 11.4 µM (inactive) | 14.1 µM (inactive) | 23.8 µM (inactive) | 14.2 µM (inactive)
C[N+](C)(N)CCC[N+](C)(C)N | > 100 µM (inactive) | > 100 µM (inactive) | – | > 100 µM (inactive) | > 100 µM (inactive) | > 100 µM (inactive) | > 100 µM (inactive) | > 100 µM (inactive) | > 100 µM (inactive) | > 100 µM (inactive) | > 100 µM (inactive) | > 100 µM (inactive) | > 100 µM (inactive) | > 100 µM (inactive) | > 100 µM (inactive) | > 100 µM (inactive) | > 100 µM (inactive) | > 100 µM (inactive) | > 100 µM (inactive)
O=c1oc2ccccc2n1CCN1CCCCC1 | > 100 µM (inactive) | > 100 µM (inactive) | – | > 100 µM (inactive) | > 100 µM (inactive) | > 100 µM (inactive) | > 100 µM (inactive) | > 100 µM (inactive) | > 100 µM (inactive) | > 100 µM (inactive) | > 100 µM (inactive) | > 100 µM (inactive) | > 100 µM (inactive) | > 100 µM (inactive) | > 100 µM (inactive) | > 100 µM (inactive) | > 100 µM (inactive) | > 100 µM (inactive) | > 100 µM (inactive)
